System: CSQ mice
Assay: Chronic mini-pump administration in CSQ mice: lifespan and cardiac hypertrophy
Type: in vivo, mouse
Description: Mice displaying the CSQ model of severe cardiomyopathy and heart failure were bred and maintained by methods known in the art. The CSQ transgenic (TG) mice were originally provided by Dr. Larry Jones (Krannert Institute of Cardiology, Indiana University School of Medicine, Indiana), and developed hypertrophy followed by a lethal heart failure phenotype with death near the age of 3 months. Ventricular myocytes were obtained from 3-month old wild type (WT) and CSQ mice of either sex (26 WT, 47 TG) by an enzymatic dissociation procedure. Briefly, the hearts were rapidly excised from mice that had been anesthetized with pentobarbital and treated with 1000 Units of heparin. The aorta was cannulated and the heart perfused in a Langendorff apparatus with oxygenated (95% O2/5% CO2) Ca^2+-free solution (37° C.) for 5 minutes at a rate of 2.5 ml/min. The solution composition was: 126 mM NaCl, 4.4 mM KCl, 1.0 mM MgCl2, 18 mM NaHCO3, 11 mM Glucose, 4 mM HEPES, and 3 mM BDM (2,3-butanedione monoxime), (pH 7.3 adjusted with NaOH). Thereafter, the perfusing solution was changed to that containing 25 μM CaCl2 and liberase (70 μg/ml, Roche Molecular Biochemicals, Inc.) for 8-10 minutes. Cells were sedimented by gravity for 10-15 minutes and the pellet was resuspended in 200 μM Ca^2+-containing Tyrode's solution (containing 3 mM BDM), allowed to settle for 30 minutes at room temperature, and suspended with Tyrode's solution containing: 135 mM NaCl, 5.4 mM KCl, 1.0 mM CaCl2, 1.0 mM MgCl2, 10 mM HEPES and 10 mM dextrose (pH 7.4 adjusted with NaOH). The experiments were carried out at room temperature (22-23° C.) and were completed within 4-6 hours after myocyte isolation.
Cardiac myocyte cross-section area was quantified by methods known in the art. […] The images of cross-sectioned cells showing consistently round shapes were captured with Macrofire® PictureFrame (Optronics, Goleta, Calif.) and cross-section area measured with ImageProPlus® (MediaCybernetics, Silver Spring, Md.). Typically, 50 to 100 cross-sectional areas were determined and averaged per heart. […]

Nc1nc(Cl)nc2c1ncn2C1[C@H]2C[C@@]2(COP(=O)(O)O)[C@@H](O)[C@H]1O (stereo partly drawn) [MRS2339, (1′S,2′R,3′S,4′R,5′S)-4-(6-amino-2-chloro-9H-purin-9-yl)-1-[phosphoryloxymethyl]bicyclo[3.1.0]hexane-2,3-diol]
Median lifespan (3 μM solution, about 6 μl per day for 28 days via mini-pump): 115 days
Cardiac myocyte cross-section area (chronic mini-pump treatment): 281±15 μm^2
Heart weight/body weight ratio (chronic mini-pump treatment): 10.5±1.38

— patent publication US8410078B2, “Composition and methods to treat cardiac diseases” (University of Connecticut, priority 2006, dated 2013)
